{"source": "patent US5821353A", "about": "“DNA encoding 1,3 beta-D glucan synthase subunits” (Merck & Co., Inc., priority 1996, dated 1998)", "key": {"[1]": {"test_system": "Pneumocystis carinii", "conditions": "rat model of P. carinii pneumonia; Schmatz et al. 1990; cited from earlier work"}, "[2]": {"test_system": "S. cerevisiae YFK532-7C (fks1-1)", "assay": "primary screen, zone size on agar", "type": "cell-based, Saccharomyces cerevisiae", "conditions": "20 ng FK506, 10 mcg CsA, 10 mcg L733,560, 20 mcg aculeacin, 20 mcg papulacandin, 48 h", "procedure": "(§1) Each strain is grown at 28°-30° C. in YPAD/10 mM CaCl2 medium with shaking at 220 rpm (to mid or late log phase). The cultures are diluted 1:10 with water, and the OD values of the dilutions are measured at 600 nm (against a blank of YPAD/10 mM CaCl2 similarly diluted 1:10 in water). The OD value is multiplied by 10 to estimate the OD of the culture. Portions (100 ml) of YPAD/10 mM CaCl2 medium containing 1.5% agar, equilibrated at 45° C. in a water bath, are seeded with culture such that the final cell density in the agar would have an OD value of 0.015 (i.e., 3×10^6 cfu/ml; a sample calculation is provided below). The seeded agar is poured into 500 cm^2 Nunc plates. Once the agar plates have solidified, 10 mcL aliquots of samples containing test compounds, such as fermentation extracts, are dissolved in water, 100% methanol or ethanol, or up to 50% DMSO and are placed on each member of the two-plate set in 11 by 8 arrays.\n(§2) The plates are incubated for 48 h at 28°-30° C. Diameters of the zones are read to the outermost edge and recorded in mm. The clarity of the zone is reported as clear (no designation), hazy (h), or very hazy (vh). Very hazy zones are best seen by viewing the plate under an elevated light placed between the assay dish and a dark wall."}, "[3]": {"test_system": "S. cerevisiae YFK007 (wild type)", "assay": "primary screen, zone size on agar", "type": "cell-based, Saccharomyces cerevisiae", "conditions": "20 ng FK506, 10 mcg CsA, 10 mcg L733,560, 20 mcg aculeacin, 20 mcg papulacandin, 48 h", "procedure": "as §1, §2"}, "[4]": {"test_system": "S. cerevisiae R560-1C", "assay": "secondary screen, zone size on agar", "type": "cell-based, Saccharomyces cerevisiae", "conditions": "20 ng FK506, 10 mcg CsA, 10 mcg L733,560, 20 mcg aculeacin, 20 mcg papulacandin", "procedure": "(§3) For positively identifying glucan synthase inhibitors, screening with strain R560-1C and its parent W303-1A was instituted in a manner identical to that described for calcineurin inhibitors. Complete loss of a zone, or marked reduction in size, on R560-1C versus W303-1A indicates a glucan synthase inhibitor. No zones are seen with calcineurin inhibitors using this pair of strains.\nas §1, §2"}, "[5]": {"test_system": "S. cerevisiae W303-1A", "assay": "secondary screen, zone size on agar", "type": "cell-based, Saccharomyces cerevisiae", "conditions": "20 ng FK506, 10 mcg CsA, 10 mcg L733,560, 20 mcg aculeacin, 20 mcg papulacandin", "procedure": "as §3, §1, §2"}, "[6]": {"test_system": "S. cerevisiae R560-1 / R560-1C (fks1-2)", "assay": "liquid MIC assay of resistant clone", "type": "cell-based, Saccharomyces cerevisiae", "procedure": "Strain W303-1A was transformed by the spheroplast method (MYG) with yeast genomic libraries obtained from D. Botstein (1982. Cell, 28:145-154). Transformants selected on uracil dropout medium were pooled and stored at -80° C. in 20% glycerol. After determining the titer (colony forming units(CFU)/ml), aliquots of the stocks were spread at .congruent.5×10^3 CFU per plate onto uracil dropout medium containing the semisynthetic echinocandin L-733,560 at 0.5 mcg/ml or 1.25 mcg/ml. This concentration of L-733,560 is sufficient to select for resistant clones. Twenty-seven drug resistant colonies were isolated. […] Briefly, L-733,560 was serially diluted across the wells of a sterile microtiter plate such that the concentration in each row ranged from 16 to 0.03 mcg/ml in 2-fold increments after an equal volume of a cell suspension in liquid uracil dropout medium was added. After 24 h at 30° C., plates were read in a spectrophotometer at a wavelength of 600 nm, and the percent of control growth in each well (relative to a no-drug control well) was calculated. […]\nBecause this strain was isolated as a transfornant from the genomic library, it was expected that resistance would be due to the gene residing on the plasmid contained in R560-1. […] R560-1C was mated to the wild type strain W303-1B, sporulated, dissected, and the sensitivity to L-733,560 quantitated by liquid MIC assay. […]"}, "[7]": {"test_system": "S. cerevisiae YFK798 (fks1-1 + CN)", "assay": "primary screen, zone size on agar (calcineurin counter screen)", "type": "cell-based, Saccharomyces cerevisiae", "conditions": "20 ng FK506, 10 mcg CsA, 10 mcg L733,560, 20 mcg aculeacin, 20 mcg papulacandin, 48 h", "procedure": "Counter screening strains were devised for identifying calcineurin inhibitors. Overexpression of yeast calcineurin in the fks1-1 mutant (strain YFK798) constitutes the most general of these. […] Glucan synthase inhibitors show neither effect and thus can be distinguished from calcineurin inhibitors.\nas §1, §2"}}, "data": [{"substance": "dihydropapulacandin [L-687,781]", "values": [{"measurement": "reducing the number of cysts in the lungs of infected rats", "setting": "[1]", "value": "effective"}, {"measurement": "Primary Screen Zone size (mm)", "setting": "[2]", "value": "26-28 mm"}, {"measurement": "Primary Screen Zone size (mm)", "setting": "[3]", "value": "20-22 mm"}, {"measurement": "Secondary Screen Zone size (mm)", "setting": "[4]", "value": "14-16 mm"}, {"measurement": "Secondary Screen Zone size (mm)", "setting": "[5]", "value": "15-18 mm"}, {"measurement": "resistance phenotype in liquid MIC assay", "setting": "[6]", "value": "resistance phenotype"}, {"measurement": "Primary Screen Zone size (mm)", "setting": "[7]", "value": "26-28 mm"}]}]}
